# Measured values taken from PubChem BioAssay (NCI).
#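 Test compounds were applied to cells in 96-well plates for 48 hours at 5 doses. TGI marks complete inhibition of growth.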
# What was measured:
# Experiment in all cases: inhibition of tumour cell growth, NCI panel, 48 h
# HCT-116 colon = test system: HCT-116 colon
# SF-539 CNS = test system: SF-539 CNS
# HOP-92 NSCLC = test system: HOP-92 NSCLC
# MALME-3M melanoma = test system: MALME-3M melanoma
# TK-10 renal = test system: TK-10 renal
# NCI-H522 lung = test system: NCI-H522 lung
# U251 CNS = test system: U251 CNS
# SW-620 colon = test system: SW-620 colon
# HCT-15 colon = test system: HCT-15 colon
# UO-31 renal = test system: UO-31 renal
# KM12 colon = test system: KM12 colon
# SNB-78 CNS = test system: SNB-78 CNS
# M19-MEL melanoma = test system: M19-MEL melanoma
# OVCAR-3 ovarian = test system: OVCAR-3 ovarian
# M14 melanoma = test system: M14 melanoma
# CAKI-1 renal = test system: CAKI-1 renal
# SR leukemia = test system: SR leukemia
# LXFL 529 NSCLC = test system: LXFL 529 NSCLC
# OVCAR-5 ovarian = test system: OVCAR-5 ovarian
# A498 renal = test system: A498 renal
# HOP-62 NSCLC = test system: HOP-62 NSCLC
# UACC-62 melanoma = test system: UACC-62 melanoma
# KM20L2 colon = test system: KM20L2 colon
# SK-MEL-5 melanoma = test system: SK-MEL-5 melanoma
# HT29 colon = test system: HT29 colon
# SN12C renal = test system: SN12C renal
# IGROV1 ovarian = test system: IGROV1 ovarian
# LOX IMVI melanoma = test system: LOX IMVI melanoma
# A549 NSCLC = test system: A549 NSCLC
# SK-MEL-2 melanoma = test system: SK-MEL-2 melanoma
# SK-OV-3 ovarian = test system: SK-OV-3 ovarian
# SK-MEL-28 melanoma = test system: SK-MEL-28 melanoma
# SF-268 CNS = test system: SF-268 CNS
# ACHN renal = test system: ACHN renal
# DMS 114 small cell lung = test system: DMS 114 small cell lung
# NCI-H460 lung = test system: NCI-H460 lung
# SNB-75 CNS = test system: SNB-75 CNS
# SNB-19 CNS = test system: SNB-19 CNS
# XF 498 CNS = test system: XF 498 CNS
# NCI-H226 lung = test system: NCI-H226 lung
# MOLT-4 leukemia = test system: MOLT-4 leukemia
# DLD-1 colon = test system: DLD-1 colon
# RPMI-8226 leukemia = test system: RPMI-8226 leukemia
# UACC-257 melanoma = test system: UACC-257 melanoma
# NCI-H23 lung = test system: NCI-H23 lung
# 786-0 renal = test system: 786-0 renal
# EKVX NSCLC = test system: EKVX NSCLC
# DMS 273 small cell lung = test system: DMS 273 small cell lung
# HL-60(TB) leukemia = test system: HL-60(TB) leukemia
# SF-295 CNS = test system: SF-295 CNS
# K-562 leukemia = test system: K-562 leukemia
# CCRF-CEM leukemia = test system: CCRF-CEM leukemia
# BT-549 breast = test system: BT-549 breast
# RXF 393 renal = test system: RXF 393 renal
# MDA-N = test system: MDA-N
# HS 578T breast = test system: HS 578T breast
# DU-145 prostate = test system: DU-145 prostate
# NCI/ADR-RES ovarian = test system: NCI/ADR-RES ovarian
# MDA-MB-231 breast = test system: MDA-MB-231 breast
# OVCAR-4 ovarian = test system: OVCAR-4 ovarian
# MCF7 breast = test system: MCF7 breast
# COLO 205 colon = test system: COLO 205 colon
# T-47D breast = test system: T-47D breast
# PC-3 prostate = test system: PC-3 prostate
# OVCAR-8 ovarian = test system: OVCAR-8 ovarian
# HCC-2998 colon = test system: HCC-2998 colon
# MDA-MB-435 = test system: MDA-MB-435
structure (smiles),measurement,setting,value
COc1cc2c(cc1OC)C1C(=O)c3c(O)cc4c(c3OC1CO2)C=CC(C)(C)O4 (centres undefined),TGI,HCT-116 colon,70.6 µM
same,TGI,SF-539 CNS,> 100 µM
same,TGI,HOP-92 NSCLC,74.5 µM
same,TGI,MALME-3M melanoma,72.9 µM
same,TGI,TK-10 renal,> 100 µM
same,TGI,NCI-H522 lung,5.45 µM
same,TGI,U251 CNS,93.2 µM
same,TGI,SW-620 colon,> 100 µM
same,TGI,HCT-15 colon,> 100 µM
same,TGI,UO-31 renal,59.2 µM
same,TGI,KM12 colon,68.3 µM
same,TGI,SNB-78 CNS,> 100 µM
same,TGI,M19-MEL melanoma,61.4 µM
same,TGI,OVCAR-3 ovarian,65.5 µM
same,TGI,M14 melanoma,76.3 µM
same,TGI,CAKI-1 renal,> 100 µM
same,TGI,SR leukemia,> 100 µM
same,TGI,LXFL 529 NSCLC,94 µM
same,TGI,OVCAR-5 ovarian,> 100 µM
same,TGI,A498 renal,> 100 µM
same,TGI,HOP-62 NSCLC,55.6 µM
same,TGI,UACC-62 melanoma,52.3 µM
same,TGI,KM20L2 colon,89.5 µM
same,TGI,SK-MEL-5 melanoma,25.3 µM
same,TGI,HT29 colon,> 100 µM
same,TGI,SN12C renal,> 100 µM
same,TGI,IGROV1 ovarian,> 100 µM
same,TGI,LOX IMVI melanoma,38.8 µM
same,TGI,A549 NSCLC,> 100 µM
same,TGI,SK-MEL-2 melanoma,50.7 µM
same,TGI,SK-OV-3 ovarian,> 100 µM
same,TGI,SK-MEL-28 melanoma,> 100 µM
same,TGI,SF-268 CNS,> 100 µM
same,TGI,ACHN renal,> 100 µM
same,TGI,DMS 114 small cell lung,25.7 µM
same,TGI,NCI-H460 lung,93.1 µM
same,TGI,SNB-75 CNS,96.4 µM
N#CC(C(=O)C(=O)Nc1ccccc1)c1ccccc1 (centres undefined),TGI,HCT-116 colon,> 100 µM
same,TGI,SNB-19 CNS,> 100 µM
same,TGI,SF-539 CNS,> 100 µM
same,TGI,XF 498 CNS,> 100 µM
same,TGI,HOP-92 NSCLC,> 100 µM
same,TGI,MALME-3M melanoma,> 100 µM
same,TGI,TK-10 renal,> 100 µM
same,TGI,NCI-H522 lung,> 100 µM
same,TGI,U251 CNS,> 100 µM
same,TGI,SW-620 colon,> 100 µM
same,TGI,HCT-15 colon,> 100 µM
same,TGI,UO-31 renal,> 100 µM
same,TGI,NCI-H226 lung,> 100 µM
same,TGI,KM12 colon,> 100 µM
same,TGI,M19-MEL melanoma,> 100 µM
same,TGI,MOLT-4 leukemia,> 100 µM
same,TGI,DLD-1 colon,> 100 µM
same,TGI,RPMI-8226 leukemia,> 100 µM
same,TGI,OVCAR-3 ovarian,> 100 µM
same,TGI,UACC-257 melanoma,> 100 µM
same,TGI,NCI-H23 lung,> 100 µM
same,TGI,786-0 renal,> 100 µM
same,TGI,M14 melanoma,> 100 µM
same,TGI,CAKI-1 renal,> 100 µM
same,TGI,SR leukemia,> 100 µM
same,TGI,LXFL 529 NSCLC,> 100 µM
same,TGI,EKVX NSCLC,> 100 µM
same,TGI,DMS 273 small cell lung,> 100 µM
same,TGI,UACC-62 melanoma,> 100 µM
same,TGI,HL-60(TB) leukemia,> 100 µM
same,TGI,KM20L2 colon,> 100 µM
same,TGI,SF-295 CNS,> 100 µM
same,TGI,K-562 leukemia,> 100 µM
same,TGI,HT29 colon,> 100 µM
same,TGI,SN12C renal,> 100 µM
same,TGI,IGROV1 ovarian,> 100 µM
same,TGI,LOX IMVI melanoma,> 100 µM
same,TGI,A549 NSCLC,> 100 µM
same,TGI,SK-MEL-2 melanoma,> 100 µM
same,TGI,SK-OV-3 ovarian,> 100 µM
same,TGI,SK-MEL-28 melanoma,> 100 µM
same,TGI,CCRF-CEM leukemia,> 100 µM
same,TGI,SF-268 CNS,> 100 µM
same,TGI,ACHN renal,> 100 µM
same,TGI,SNB-75 CNS,> 100 µM
NC(N)=NCC1CCCCCCN1 (centres undefined),TGI,HCT-116 colon,> 100 µM
same,TGI,SNB-19 CNS,> 100 µM
same,TGI,SF-539 CNS,> 100 µM
same,TGI,BT-549 breast,> 100 µM
same,TGI,RXF 393 renal,> 100 µM
same,TGI,HOP-92 NSCLC,> 100 µM
same,TGI,MALME-3M melanoma,> 100 µM
same,TGI,TK-10 renal,> 100 µM
same,TGI,NCI-H522 lung,> 100 µM
same,TGI,MDA-N,> 100 µM
same,TGI,U251 CNS,> 100 µM
same,TGI,SW-620 colon,> 100 µM
same,TGI,HS 578T breast,> 100 µM
same,TGI,HCT-15 colon,> 100 µM
same,TGI,UO-31 renal,> 100 µM
same,TGI,NCI-H226 lung,> 100 µM
same,TGI,KM12 colon,> 100 µM
same,TGI,MOLT-4 leukemia,> 100 µM
same,TGI,DU-145 prostate,> 100 µM
same,TGI,RPMI-8226 leukemia,> 100 µM
same,TGI,OVCAR-3 ovarian,> 100 µM
same,TGI,UACC-257 melanoma,> 100 µM
same,TGI,NCI-H23 lung,> 100 µM
same,TGI,786-0 renal,> 100 µM
same,TGI,NCI/ADR-RES ovarian,> 100 µM
same,TGI,M14 melanoma,> 100 µM
same,TGI,MDA-MB-231 breast,> 100 µM
same,TGI,CAKI-1 renal,> 100 µM
same,TGI,SR leukemia,> 100 µM
same,TGI,OVCAR-4 ovarian,> 100 µM
same,TGI,MCF7 breast,> 100 µM
same,TGI,OVCAR-5 ovarian,> 100 µM
same,TGI,A498 renal,> 100 µM
same,TGI,COLO 205 colon,> 100 µM
same,TGI,EKVX NSCLC,> 100 µM
same,TGI,HOP-62 NSCLC,> 100 µM
same,TGI,UACC-62 melanoma,> 100 µM
same,TGI,HL-60(TB) leukemia,> 100 µM
same,TGI,SK-MEL-5 melanoma,> 100 µM
same,TGI,SF-295 CNS,> 100 µM
same,TGI,T-47D breast,> 100 µM
same,TGI,PC-3 prostate,> 100 µM
same,TGI,OVCAR-8 ovarian,> 100 µM
same,TGI,K-562 leukemia,> 100 µM
same,TGI,HT29 colon,> 100 µM
same,TGI,SN12C renal,> 100 µM
same,TGI,IGROV1 ovarian,> 100 µM
same,TGI,A549 NSCLC,> 100 µM
same,TGI,SK-MEL-2 melanoma,> 100 µM
same,TGI,SK-OV-3 ovarian,> 100 µM
same,TGI,HCC-2998 colon,> 100 µM
same,TGI,SK-MEL-28 melanoma,> 100 µM
same,TGI,CCRF-CEM leukemia,> 100 µM
same,TGI,SF-268 CNS,> 100 µM
same,TGI,ACHN renal,> 100 µM
same,TGI,MDA-MB-435,> 100 µM
same,TGI,NCI-H460 lung,> 100 µM
same,TGI,SNB-75 CNS,> 100 µM
CSc1nc(C)cc(Nc2ccc(O)c(CN3CCOCC3)c2)n1,TGI,HCT-116 colon,> 100 µM
same,TGI,SNB-19 CNS,> 100 µM
same,TGI,SF-539 CNS,> 100 µM
same,TGI,BT-549 breast,> 100 µM
same,TGI,RXF 393 renal,> 100 µM
same,TGI,HOP-92 NSCLC,> 100 µM
same,TGI,MALME-3M melanoma,> 100 µM
same,TGI,TK-10 renal,> 100 µM
same,TGI,NCI-H522 lung,> 100 µM
same,TGI,MDA-N,> 100 µM
same,TGI,U251 CNS,> 100 µM
same,TGI,SW-620 colon,> 100 µM
same,TGI,HS 578T breast,> 100 µM
same,TGI,HCT-15 colon,> 100 µM
same,TGI,UO-31 renal,> 100 µM
same,TGI,NCI-H226 lung,> 100 µM
same,TGI,KM12 colon,> 100 µM
same,TGI,MOLT-4 leukemia,> 100 µM
same,TGI,DU-145 prostate,> 100 µM
same,TGI,RPMI-8226 leukemia,> 100 µM
same,TGI,OVCAR-3 ovarian,> 100 µM
same,TGI,UACC-257 melanoma,> 100 µM
same,TGI,NCI-H23 lung,> 100 µM
same,TGI,786-0 renal,> 100 µM
same,TGI,NCI/ADR-RES ovarian,> 100 µM
same,TGI,M14 melanoma,> 100 µM
same,TGI,MDA-MB-231 breast,> 100 µM
same,TGI,CAKI-1 renal,> 100 µM
same,TGI,SR leukemia,> 100 µM
same,TGI,OVCAR-4 ovarian,> 100 µM
same,TGI,MCF7 breast,> 100 µM
same,TGI,OVCAR-5 ovarian,> 100 µM
same,TGI,A498 renal,> 100 µM
same,TGI,COLO 205 colon,> 100 µM
same,TGI,EKVX NSCLC,> 100 µM
same,TGI,HOP-62 NSCLC,> 100 µM
same,TGI,UACC-62 melanoma,> 100 µM
same,TGI,HL-60(TB) leukemia,> 100 µM
same,TGI,SK-MEL-5 melanoma,> 100 µM
same,TGI,SF-295 CNS,> 100 µM
same,TGI,T-47D breast,> 100 µM
same,TGI,PC-3 prostate,> 100 µM
same,TGI,OVCAR-8 ovarian,> 100 µM
same,TGI,K-562 leukemia,> 100 µM
same,TGI,HT29 colon,> 100 µM
same,TGI,SN12C renal,> 100 µM
same,TGI,IGROV1 ovarian,> 100 µM
same,TGI,LOX IMVI melanoma,> 100 µM
same,TGI,A549 NSCLC,> 100 µM
same,TGI,SK-MEL-2 melanoma,> 100 µM
same,TGI,SK-OV-3 ovarian,> 100 µM
same,TGI,HCC-2998 colon,> 100 µM
same,TGI,SK-MEL-28 melanoma,> 100 µM
same,TGI,CCRF-CEM leukemia,> 100 µM
same,TGI,SF-268 CNS,> 100 µM
same,TGI,ACHN renal,> 100 µM
same,TGI,MDA-MB-435,> 100 µM
same,TGI,NCI-H460 lung,> 100 µM
same,TGI,SNB-75 CNS,> 100 µM
